Peptide text beside a SMILES is read from it.
Tests used:
Format in all cases: biochemical
HDAC3 = target: T1, HDAC3 (Homo sapiens, UniProt O15379); assay: HDAC3 inhibition, full IC50 measurement (Reaction Biology; fluorogenic p53 peptide RHKK(Ac)AMC)
T1 construct: purchased Reaction Biology Corporation (assay run by the CRO)
Outline: (§1)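 Deacetylation of 50 μM RHKK(Ac)AMC is measured after 1 h at 30 °C in pH 8.0 Tris buffer (1% DMSO, 1 mg/ml BSA). Developer ends the reaction; the post-plateau 360/460 nm signal is fitted to IC50, averaging replicate measurements.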

HDAC1 = target: T2, HDAC1 (Homo sapiens, UniProt Q13547); assay: HDAC1 inhibition, full IC50 measurement (Reaction Biology; fluorogenic p53 peptide RHKK(Ac)AMC); conditions: for HDAC1 activity raw data (signal): t1/t2 replicates
T2 construct: purchased Reaction Biology Corporation (assay run by the CRO)
Outline: as §1

HDAC6 = target: T3, HDAC6 (Homo sapiens, UniProt Q9UBN7); assay: HDAC6 inhibition, full IC50 measurement (Reaction Biology; fluorogenic p53 peptide RHKK(Ac)AMC)
T3 construct: purchased Reaction Biology Corporation (assay run by the CRO)
T3 sequence (Q9UBN7 1-1215): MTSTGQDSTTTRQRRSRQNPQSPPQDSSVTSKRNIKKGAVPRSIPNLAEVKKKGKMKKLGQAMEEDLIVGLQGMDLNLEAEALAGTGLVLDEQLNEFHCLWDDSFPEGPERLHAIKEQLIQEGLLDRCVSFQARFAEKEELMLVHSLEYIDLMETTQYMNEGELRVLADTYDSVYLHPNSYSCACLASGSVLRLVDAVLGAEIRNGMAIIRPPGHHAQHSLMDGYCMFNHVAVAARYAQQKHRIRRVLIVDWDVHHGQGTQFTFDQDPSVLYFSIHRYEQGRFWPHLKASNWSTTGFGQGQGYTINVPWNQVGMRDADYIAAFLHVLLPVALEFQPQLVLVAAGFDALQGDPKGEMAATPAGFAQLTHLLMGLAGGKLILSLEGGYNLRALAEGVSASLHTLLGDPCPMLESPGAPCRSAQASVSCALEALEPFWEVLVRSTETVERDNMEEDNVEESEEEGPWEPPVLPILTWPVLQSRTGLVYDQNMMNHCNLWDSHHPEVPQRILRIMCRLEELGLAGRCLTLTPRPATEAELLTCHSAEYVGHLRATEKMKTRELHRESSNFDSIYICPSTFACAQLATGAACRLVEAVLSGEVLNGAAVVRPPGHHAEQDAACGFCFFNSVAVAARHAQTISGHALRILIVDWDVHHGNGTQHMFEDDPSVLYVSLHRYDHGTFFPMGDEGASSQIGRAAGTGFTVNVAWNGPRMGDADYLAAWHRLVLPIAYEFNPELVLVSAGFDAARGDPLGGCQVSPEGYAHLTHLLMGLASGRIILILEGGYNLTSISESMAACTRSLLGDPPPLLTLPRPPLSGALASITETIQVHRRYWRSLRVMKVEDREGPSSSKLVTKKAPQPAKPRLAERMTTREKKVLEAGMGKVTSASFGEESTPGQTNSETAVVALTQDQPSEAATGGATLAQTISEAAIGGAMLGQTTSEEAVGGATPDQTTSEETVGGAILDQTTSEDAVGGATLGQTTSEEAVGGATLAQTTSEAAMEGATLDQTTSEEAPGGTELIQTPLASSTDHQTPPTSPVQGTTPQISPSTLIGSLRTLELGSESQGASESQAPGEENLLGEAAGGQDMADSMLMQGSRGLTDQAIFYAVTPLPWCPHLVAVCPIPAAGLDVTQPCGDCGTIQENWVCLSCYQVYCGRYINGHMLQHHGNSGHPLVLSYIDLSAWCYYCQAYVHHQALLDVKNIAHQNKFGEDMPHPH
Outline: as §1

T2 sequence (Q13547 whole entry): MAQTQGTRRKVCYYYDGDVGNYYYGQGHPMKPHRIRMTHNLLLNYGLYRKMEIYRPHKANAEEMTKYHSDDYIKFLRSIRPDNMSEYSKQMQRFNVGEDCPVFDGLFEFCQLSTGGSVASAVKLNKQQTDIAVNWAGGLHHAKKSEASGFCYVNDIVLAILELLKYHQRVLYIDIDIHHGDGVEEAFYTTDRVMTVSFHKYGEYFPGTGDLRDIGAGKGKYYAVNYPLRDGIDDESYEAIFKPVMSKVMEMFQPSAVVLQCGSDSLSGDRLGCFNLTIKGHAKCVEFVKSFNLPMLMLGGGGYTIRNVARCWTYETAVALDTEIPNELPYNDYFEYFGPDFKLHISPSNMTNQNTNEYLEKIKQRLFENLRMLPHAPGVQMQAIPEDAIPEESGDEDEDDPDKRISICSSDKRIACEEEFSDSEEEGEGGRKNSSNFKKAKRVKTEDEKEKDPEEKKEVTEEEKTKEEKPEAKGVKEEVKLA
T1 sequence (O15379 whole entry): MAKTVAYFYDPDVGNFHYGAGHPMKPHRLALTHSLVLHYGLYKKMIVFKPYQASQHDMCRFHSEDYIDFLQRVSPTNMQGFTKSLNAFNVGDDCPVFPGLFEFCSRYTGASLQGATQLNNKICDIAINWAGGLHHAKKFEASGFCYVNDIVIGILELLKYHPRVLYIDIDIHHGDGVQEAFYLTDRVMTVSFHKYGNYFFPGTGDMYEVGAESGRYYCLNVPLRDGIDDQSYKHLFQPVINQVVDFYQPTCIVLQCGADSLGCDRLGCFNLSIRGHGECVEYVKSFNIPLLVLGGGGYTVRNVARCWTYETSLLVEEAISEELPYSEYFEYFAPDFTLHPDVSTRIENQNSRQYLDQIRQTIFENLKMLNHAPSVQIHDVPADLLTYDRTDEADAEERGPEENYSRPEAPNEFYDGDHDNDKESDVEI
T1 sequence (Q9Y618 395-489 partner limits assumed): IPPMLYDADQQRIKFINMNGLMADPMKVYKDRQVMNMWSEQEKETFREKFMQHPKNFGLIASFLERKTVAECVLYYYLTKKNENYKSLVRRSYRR

`CC(C)[C@@H]1NC(=O)[C@H](CCCNC(=N)N)NC(=O)[C@@H](CC(=O)O)NC(=O)[C@H](CO)NC(=O)[C@@H](CO)NC(=O)[C@@H](CCC(=O)O)NC(=O)[C@H](Cc2ccc(O)cc2)NC(=O)[C@H](CCCCCS)NC1=O` [des4.2.0, SHA-Tyr-dGlu-dSer-Ser-dAsp-Arg-Val] (HELM PEPTIDE1{R.V.[O=C([C@H](CCCCCS)N[*:1])[*:2]].Y.[dE].[dS].S.[dD]}$PEPTIDE1,PEPTIDE1,1:R1-8:R2$$$V2.0) was tested, and the “HDAC3 activity raw data (signal)” value (HDAC3; Conc. 1.00E-05 M, t1) was 26422, the “HDAC3 activity raw data (signal)” value (HDAC3; Conc. 1.00E-05 M, t2) was 22359 and the “HDAC3 activity raw data (signal)” value (HDAC3; Conc. 1.11E-06 M, t1) was 160928. The “HDAC3 activity raw data (signal)” value (HDAC3; Conc. 1.11E-06 M, t2) was 163740, the “HDAC3 activity raw data (signal)” value (HDAC3; Conc. 1.23E-07 M, t1) was 525206 and the “HDAC3 activity raw data (signal)” value (HDAC3; Conc. 1.23E-07 M, t2) was 581691. For the same molecule, the “HDAC3 activity raw data (signal)” value (HDAC3; Conc. 1.37E-08 M, t1) was 1076943, the “HDAC3 activity raw data (signal)” value (HDAC3; Conc. 1.37E-08 M, t2) was 1111273 and the “HDAC3 activity raw data (signal)” value (HDAC3; Conc. 1.52E-09 M, t1) was 1186064. For the same molecule, the “HDAC3 activity raw data (signal)” value (HDAC3; Conc. 1.52E-09 M, t2) was 1359852, the “HDAC3 activity raw data (signal)” value (HDAC3; Conc. 3.33E-06 M, t1) was 71800 and the “HDAC3 activity raw data (signal)” value (HDAC3; Conc. 3.33E-06 M, t2) was 63219. For the same molecule, the “HDAC3 activity raw data (signal)” value (HDAC3; Conc. 3.70E-07 M, t1) was 296381, the “HDAC3 activity raw data (signal)” value (HDAC3; Conc. 3.70E-07 M, t2) was 296142 and the “HDAC3 activity raw data (signal)” value (HDAC3; Conc. 4.12E-08 M, t1) was 806773. The “HDAC3 activity raw data (signal)” value (HDAC3; Conc. 4.12E-08 M, t2) was 863981, the “HDAC3 activity raw data (signal)” value (HDAC3; Conc. 4.57E-09 M, t1) was 1182733 and the “HDAC3 activity raw data (signal)” value (HDAC3; Conc. 4.57E-09 M, t2) was 1313514. For the same molecule, the “HDAC3 activity raw data (signal)” value (HDAC3; Conc. 5.08E-10 M, t1) was 1345816, the “HDAC3 activity raw data (signal)” value (HDAC3; Conc. 5.08E-10 M, t2) was 1394913 and the IC50 (HDAC3; Supp. Table 1) was 71.2 nM. The IC50 (HDAC1; Supp. Table 1) was 58.2 nM, the “HDAC1 activity raw data (signal)” value (HDAC1; peptide conc. 1.00E-05 M, listed as des4.2.0_t1) was 11630 and the “HDAC1 activity raw data (signal)” value (HDAC1; peptide conc. 1.00E-05 M, listed as des4.2.0_t2) was 12995. The “HDAC1 activity raw data (signal)” value (HDAC1; peptide conc. 1.11E-06 M, listed as des4.2.0_t1) was 76613, the “HDAC1 activity raw data (signal)” value (HDAC1; peptide conc. 1.11E-06 M, listed as des4.2.0_t2) was 123433 and the “HDAC1 activity raw data (signal)” value (HDAC1; peptide conc. 1.23E-07 M, listed as des4.2.0_t1) was 411114. For the same molecule, the “HDAC1 activity raw data (signal)” value (HDAC1; peptide conc. 1.23E-07 M, listed as des4.2.0_t2) was 418507, the “HDAC1 activity raw data (signal)” value (HDAC1; peptide conc. 1.37E-08 M, listed as des4.2.0_t1) was 880188 and the “HDAC1 activity raw data (signal)” value (HDAC1; peptide conc. 1.37E-08 M, listed as des4.2.0_t2) was 934141. For the same molecule, the “HDAC1 activity raw data (signal)” value (HDAC1; peptide conc. 1.52E-09 M, listed as des4.2.0_t1) was 1108126, the “HDAC1 activity raw data (signal)” value (HDAC1; peptide conc. 1.52E-09 M, listed as des4.2.0_t2) was 1086586 and the “HDAC1 activity raw data (signal)” value (HDAC1; peptide conc. 3.33E-06 M, listed as des4.2.0_t1) was 45545. The “HDAC1 activity raw data (signal)” value (HDAC1; peptide conc. 3.33E-06 M, listed as des4.2.0_t2) was 50745, the “HDAC1 activity raw data (signal)” value (HDAC1; peptide conc. 3.70E-07 M, listed as des4.2.0_t1) was 212662 and the “HDAC1 activity raw data (signal)” value (HDAC1; peptide conc. 3.70E-07 M, listed as des4.2.0_t2) was 215699. For the same molecule, the “HDAC1 activity raw data (signal)” value (HDAC1; peptide conc. 4.12E-08 M, listed as des4.2.0_t1) was 634511, the “HDAC1 activity raw data (signal)” value (HDAC1; peptide conc. 4.12E-08 M, listed as des4.2.0_t2) was 682055 and the “HDAC1 activity raw data (signal)” value (HDAC1; peptide conc. 4.57E-09 M, listed as des4.2.0_t1) was 995614. For the same molecule, the “HDAC1 activity raw data (signal)” value (HDAC1; peptide conc. 4.57E-09 M, listed as des4.2.0_t2) was 978150, the “HDAC1 activity raw data (signal)” value (HDAC1; peptide conc. 5.08E-10 M, listed as des4.2.0_t1) was 1100683 and the “HDAC1 activity raw data (signal)” value (HDAC1; peptide conc. 5.08E-10 M, listed as des4.2.0_t2) was 1179300. The “HDAC6 activity raw data (signal)” value (HDAC6; Conc. 1.00E-05 M, t1) was -7055, the “HDAC6 activity raw data (signal)” value (HDAC6; Conc. 1.00E-05 M, t2) was -3082 and the “HDAC6 activity raw data (signal)” value (HDAC6; Conc. 1.11E-06 M, t1) was 103285. For the same molecule, the “HDAC6 activity raw data (signal)” value (HDAC6; Conc. 1.11E-06 M, t2) was 106610, the “HDAC6 activity raw data (signal)” value (HDAC6; Conc. 1.23E-07 M, t1) was 299609 and the “HDAC6 activity raw data (signal)” value (HDAC6; Conc. 1.23E-07 M, t2) was 290391. The “HDAC6 activity raw data (signal)” value (HDAC6; Conc. 1.37E-08 M, t1) was 820280, the “HDAC6 activity raw data (signal)” value (HDAC6; Conc. 1.37E-08 M, t2) was 820159 and the “HDAC6 activity raw data (signal)” value (HDAC6; Conc. 1.52E-09 M, t1) was 1558048. The “HDAC6 activity raw data (signal)” value (HDAC6; Conc. 1.52E-09 M, t2) was 1527304, the “HDAC6 activity raw data (signal)” value (HDAC6; Conc. 3.33E-06 M, t1) was 43007 and the “HDAC6 activity raw data (signal)” value (HDAC6; Conc. 3.33E-06 M, t2) was 45218. For the same molecule, the “HDAC6 activity raw data (signal)” value (HDAC6; Conc. 3.70E-07 M, t1) was 181567, the “HDAC6 activity raw data (signal)” value (HDAC6; Conc. 3.70E-07 M, t2) was 190636 and the “HDAC6 activity raw data (signal)” value (HDAC6; Conc. 4.12E-08 M, t1) was 459108. The “HDAC6 activity raw data (signal)” value (HDAC6; Conc. 4.12E-08 M, t2) was 432840, the “HDAC6 activity raw data (signal)” value (HDAC6; Conc. 4.57E-09 M, t1) was 1111578 and the “HDAC6 activity raw data (signal)” value (HDAC6; Conc. 4.57E-09 M, t2) was 1107939. The “HDAC6 activity raw data (signal)” value (HDAC6; Conc. 5.08E-10 M, t1) was 1904356, the “HDAC6 activity raw data (signal)” value (HDAC6; Conc. 5.08E-10 M, t2) was 1828745 and the “selectivity for HDAC6 over HDAC8” value (HDAC6; Supp. Table 8) was 80 fold. The “selectivity for HDAC6 over HDACs1/2/3” value (HDAC6; Supp. Table 8) was > 10 fold and the IC50 (HDAC6; figure legends, Supp. Tables 1 and 8, read-out: HDAC6 IC50) was 4.4 nM.
